# Values quoted from earlier work in patent publication US10112976B2, “Process for the production of D-arginyl-2,6-dimethyl-L-tyrosyl-L-lysyl-L-phenylalaninamide” (Flamma S.P.A., priority 2014, dated 2018).
# Non-standard residues stand in square brackets, D forms with d. Residues, ends and D or L forms follow the SMILES beside them. Dmt = Cc1cc(O)cc(C)c1C[C@H](N)C(=O)O
# Legend:
# [1] = tested on: G93A mouse model of amyotrophic lateral sclerosis; details: 5 mg/kg/day i.p. starting at 30 days of age
# [2] = tested on: rats with unilateral ureteral obstruction; details: intraperitoneal 1 and 3 mg/kg, 1 day prior to obstruction and every day for 14 days
# [3] = tested on: SH—SY5Y neuronal cell line; details: <1 nM; SH—SY5Y cells
# mu-opioid receptor = mu-opioid receptor (Homo sapiens, UniProt P35372); details: as stated for WO 2013/086020, WO 2004/070054, WO 2005/072295
# Chain of mu-opioid receptor (P35372 whole entry): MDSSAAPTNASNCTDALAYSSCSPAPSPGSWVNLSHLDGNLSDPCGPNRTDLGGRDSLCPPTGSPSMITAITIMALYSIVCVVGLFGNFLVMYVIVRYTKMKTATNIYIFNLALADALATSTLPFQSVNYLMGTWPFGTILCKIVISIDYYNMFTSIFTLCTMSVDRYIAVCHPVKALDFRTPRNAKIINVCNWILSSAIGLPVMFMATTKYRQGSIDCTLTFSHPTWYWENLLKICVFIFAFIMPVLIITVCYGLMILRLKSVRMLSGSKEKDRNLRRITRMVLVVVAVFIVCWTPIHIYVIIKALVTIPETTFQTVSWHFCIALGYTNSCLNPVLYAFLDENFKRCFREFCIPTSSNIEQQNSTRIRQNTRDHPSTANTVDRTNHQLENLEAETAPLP
# [4] = tested on: inner mitochondrial membrane
# N2A neuronal cell line = details: <1 nM; N2A cells
# mouse pancreatic islets = details: 3 mg/kg i.p. qd for 2 weeks
smiles,measurement,setting,value
"Cc1cc(O)cc(C)c1C[C@H](NC(=O)[C@H](N)CCCNC(=N)N)C(=O)N[C@@H](CCCCN)C(=O)N[C@@H](Cc1ccccc1)C(N)=O [D-Arginyl-2,6-dimethyl-L-tyrosyl-L-lysyl-L-phenylalaninamide] (H-[dR][Dmt]KF-NH2)",disease onset,[1],significant delay
same,interstitial fibrosis,[2],significantly decreased
same,macrophage infiltration,[2],significantly decreased
same,tubular damage,[2],significantly decreased
same,intracellular reactive oxygen species,[3],significantly reduced
same,mitochondrial potential,[3],increased
same,tBHP-induced apoptosis,[3],prevented
same,mu-opioid receptor agonist activity,mu-opioid receptor,does not have mu-opioid receptor agonist activity
same,antioxidant activity,[4],showed antioxidant activity
same,intracellular reactive oxygen species,N2A neuronal cell line,significantly reduced
same,mitochondrial potential,N2A neuronal cell line,increased
same,tBHP-induced apoptosis,N2A neuronal cell line,prevented
same,apoptosis in pancreatic islets caused by streptozotocin,mouse pancreatic islets,prevented
same,insulin reduction in pancreatic islets caused by streptozotocin,mouse pancreatic islets,prevented
